Source: patent US6034215A, “3-amino-2-oxo-1-piperidnercetic derivatives as enzyme inhibitors” (Corvas International, Inc., priority 1997, dated 2000)
Read-outs that look alike come from different tables or passages of the source.

Experiments:
human plasmin = human plasmin (Homo sapiens, UniProt P00747); test: In vitro enzyme assay for specificity: plasmin assay, IC50; type: biochemical; details: Table 3
Description: Plasmin catalytic activity was determined using the chromogenic substrate, S-2251 (D-valyl-L-leucyl-L-lysine-p-nitroanilide), which was obtained from Kabi Diagnostica.

human α-thrombin = human α-thrombin (Homo sapiens, UniProt P00734); test: In vitro enzyme assay for specificity: Thrombin (fIIa) assay, IC50; type: biochemical
Description: IC50 determinations were conducted where HBSA (50 μL), α-thrombin (50 μl) and inhibitor (50 μl) (covering a broad concentration range), were combined in appropriate wells and incubated for 30 minutes at room temperature prior to the addition of substrate Pefachrome-t-PA (50 μl).

Human rt-PA (Activase®) = target: T1, Human rt-PA (Activase®) (Homo sapiens, UniProt P00750); test: In vitro enzyme assay for specificity: recombinant tissue plasminogen activator, IC50; type: biochemical; details: Table 3
T1 construct: purchased Genentech Inc. Activase®
T1 sequence (P00750 36-562): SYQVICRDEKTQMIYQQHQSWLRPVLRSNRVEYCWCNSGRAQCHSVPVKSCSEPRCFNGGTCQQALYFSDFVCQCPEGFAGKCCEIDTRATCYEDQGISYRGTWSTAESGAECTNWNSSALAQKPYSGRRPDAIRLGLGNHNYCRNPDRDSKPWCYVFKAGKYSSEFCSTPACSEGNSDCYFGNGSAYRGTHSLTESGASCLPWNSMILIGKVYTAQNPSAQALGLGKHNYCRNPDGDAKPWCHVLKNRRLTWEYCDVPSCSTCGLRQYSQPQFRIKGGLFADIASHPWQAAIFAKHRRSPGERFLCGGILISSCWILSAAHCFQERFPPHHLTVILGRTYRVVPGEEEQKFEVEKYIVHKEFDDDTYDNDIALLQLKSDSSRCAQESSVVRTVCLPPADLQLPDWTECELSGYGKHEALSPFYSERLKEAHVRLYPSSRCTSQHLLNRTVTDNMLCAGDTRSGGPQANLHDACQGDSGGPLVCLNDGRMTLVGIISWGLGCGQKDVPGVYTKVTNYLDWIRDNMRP

human aPC = target: T2, human aPC (Homo sapiens, UniProt P04070); test: In vitro enzyme assay for specificity: activated protein C, IC50; type: biochemical; details: Table 3
T2 construct: purchased Hematologic Technologies, Inc
T2 sequence (P04070 43-197 limits assumed): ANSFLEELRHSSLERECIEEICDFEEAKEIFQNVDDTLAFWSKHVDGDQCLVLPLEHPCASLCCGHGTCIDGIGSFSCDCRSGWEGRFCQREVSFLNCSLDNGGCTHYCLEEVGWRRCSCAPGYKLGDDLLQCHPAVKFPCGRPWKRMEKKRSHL
T2 sequence (P04070 212-461 limits assumed): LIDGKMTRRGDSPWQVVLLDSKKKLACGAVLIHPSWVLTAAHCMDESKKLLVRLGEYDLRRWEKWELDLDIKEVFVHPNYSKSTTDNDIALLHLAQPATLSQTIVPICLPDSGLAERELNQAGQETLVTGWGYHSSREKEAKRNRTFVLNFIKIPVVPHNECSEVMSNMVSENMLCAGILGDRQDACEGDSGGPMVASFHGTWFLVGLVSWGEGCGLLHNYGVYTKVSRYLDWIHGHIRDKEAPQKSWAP
Description: aPC catalytic activity was determined using the chromogenic substrate, Pefachrome PC (delta-carbobenzloxy-D-lysine -L-prolyl-L-arginine-p-nitroanilide), obtained from Pentapharm Ltd.). […] Purified human aPC was obtained from Hematologic Technologies, Inc. The enzyme was diluted into HBSA prior to assay in which the final concentration was 1.0 nM.

[1] = target: T3, bovine pancreatic trypsin (Bos taurus, UniProt P00760); test: In vitro enzyme assay for specificity: trypsin, IC50; type: biochemical; details: Table 2
T3 sequence (P00760 24-246): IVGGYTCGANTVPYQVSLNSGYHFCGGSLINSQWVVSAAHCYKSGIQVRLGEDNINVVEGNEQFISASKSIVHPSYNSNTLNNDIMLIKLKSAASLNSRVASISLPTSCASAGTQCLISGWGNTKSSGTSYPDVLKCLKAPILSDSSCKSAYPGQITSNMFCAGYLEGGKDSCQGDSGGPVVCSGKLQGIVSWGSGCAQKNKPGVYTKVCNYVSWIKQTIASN
Description: Trypsin catalytic activity was determined using the chromogenic substrate, S-2222 (benzoyl-L-isoleucine-L-glutamic acid-(gamma-methyl ester)-L-arginine-p-nitroanilide), which was obtained from Kabi Diagnostica. […] Purified (3×-crystallized; TRL3) bovine pancreatic trypsin was obtained from Worthington Biochemical Corp. The enzyme was reconstituted in deionized water and diluted into HBSA prior to assay in which the final concentration was 0.5 nM.

[2] = Oral activity in dogs: blood levels and bioavailability; type: in vivo, beagle dogs
Description: The pharmacodynamic and pharmacokinetic parameters of the compound of Example 34 were evaluated after oral administration in dogs. Adult beagle dogs (9-12 kg) were housed individually in standard cages, and were fed a standard certified commercial diet and tap water ad libitum. Dogs were given an oral dose of 20 mg/kg test compound, in 55 ml deionized water, via a gastric tube, followed by a water rinse. In a separate protocol, 5 mg/kg of test compound, in 5 ml 0.9% sodium chloride, were administered by fast bolus i.v. injection through an indwelling saphenous vein catheter. The same dogs were used for both routes of administration, with a one week wash out period between use of the dogs for the different protocols. […]
(§1) The blood levels of test compound were measured by extracting the compound from plasma, separation by HPLC, and post-column derivatization with a fluorogenic functional group. The clotting time of blood was measured using an APTT assay, which measures the prolongation of the activated partial thromboplastin time (APTT) by the test compound. […]
The systemic bioavailability of the test compound administered by the oral route was calculated by comparing the AUC values (area under curve describing level of compound in blood over time) after i.v. and oral administration. […]

human alpha-thrombin = human alpha-thrombin (Homo sapiens, UniProt P00734); test: Kinetic analysis in an in vitro thrombin inhibition assay (Ki); type: biochemical; details: Table 1; Mean ± SD, n = 3; steady state velocities over 40 minutes
citrated human plasma = test: Anticoagulant effect in human plasma, activated partial thromboplastin time (APTT) assay; type: biochemical; details: for concentration which caused a doubling of the control clotting time (APTT): citrated human plasma, mean of two independent determinations; for prolongation of the APTT: human plasma, broad concentration range of added inhibitor
Description: (§2) The ex vivo anticoagulant effects of BzlSO2 -norVal (cyclo)-Gly-Arg-al(Example 8) and N-(BnSO2 -norLeu (cyclo)-Gly)-L-argininal (Example 34) were determined by measuring the prolongation of the activated partial thromboplastin time (APTT) over a broad concentration range of the added inhibitor, using pooled normal human and rat plasma.
(§3) Fresh frozen citrated pooled normal human plasma was obtained from George King Biomedical, Overland Park, Kans. Pooled normal rat plasma was prepared from citrated whole blood collected from anesthetized rats using standard procedures. The plasma was flash frozen and stored at -80° C. until use.
(§4) Measurements APTT was made using the Coag-A-Mate RA4 automated coagulometer (General Diagnostics, Organon Technica, Oklahoma City, Okla.) using the Automated APTT reagent (Organon Technica, Durham, N.C.) as the initiator of clotting according to the manufacturers instructions. The assay was conducted by making a series of dilutions of the test compounds in rapidly thawed plasma followed by adding 200 microliters to the wells of the assay carousel.

[3] = test system: FeCl3 -induced Platelet-dependent Arterial Thrombosis; test: Rat model of FeCl3 -induced platelet-dependent arterial thrombosis; type: in vivo; details: for ED50 for thrombus prevention (dose that prevents complete thrombotic occlusion in 50% of animals tested): rat FeCl3 model of arterial thrombosis; for Incidence of Occlusion: rat
From the text: This is a well characterized model of platelet dependent, arterial thrombosis which has been used in the evaluation potential antithrombotic compounds such as direct thrombin inhibitors. Kurz, K. D., Main, B. W., and Sandusky, G. E., Thromb. Res., 60: 269-280 (1990). In this model a platelet-rich, occlusive thrombus is formed in a segment of the rat carotid artery treated locally with a fresh solution of FeCl3 absorbed to a piece of filter paper. The FeCl3 is thought to diffuse into the treated segment of artery and causes de-endothelialization of the affected vessel surface. […] The effect of a test compound on the incidence of occlusive thrombus formation following the application of the FeCl3 is monitored by ultrasonic flowtometry and is used as the primary end point. The use of flowtometry to measure carotid artery blood flow, is a modification of the original procedure in which thermal detection of clot formation was employed. Kurz, K. D., Main, B. W., and Sandusky, G. E., Thromb. Res., 60: 269-280 (1990).
Male Harlan Sprague Dawley rats (420-450 g) were acclimated at least 72 hours prior to use and fasted for 12 hours prior to surgery with free access to water. The animals were prepared, anesthetized with Nembutal followed by the insertion of catheters for blood pressure monitoring, drug and anesthesia delivery. The left carotid artery was isolated by making a midline cervical incision followed by blunt dissection and spreading techniques to separate a 2 cm segment of the vessel from the carotid sheath. A silk suture is inserted under the proximal and distal ends of the isolated vessel to provide clearance for the placement of a ultrasonic flow probe (Transonic) around the proximal end of the vessel. The probe is then secured with a stationary arm.
Following surgery the animals were randomized in either a control (saline) or treatment group with test compound (BzlSO2 -norVal(cyclo)-Gly-Arg-al or N-(BnSO2 -norLeu(cyclo)Gly)-L-argininal)with at least 6 animals per group per dose. The test compound was administered as a single intravenous bolus at the doses outlined in Table 3 after placement of the flow probe and 5 minutes prior to the thrombogenic stimulus. At t=0, a 3 mm diameter piece of filter paper (Whatman #3) soaked with 10 microliters of a 35% solution of fresh FeCl3 (made up in water) was applied the segment of isolated carotid artery distal to the flow probe. Blood pressure, blood flow, heart rate, and respiration were monitored for 60 minutes.
The incidence of occlusion (defined as the attainment of zero blood flow) was recorded as the primary end point.
This allows a direct comparison of the antithrombotic efficacy of BzlSO2 -norVal(cyclo)-Gly-Arg-al and N-(BnSO2 -norLeu(cyclo)-Gly)-L-argininal with other antithrombotic agents which have also been evaluated in this model as described above. Table 6 lists the ED50 values for several well known anticoagulant agents in this model compared to the present compounds.

citrated rat plasma = test: Anticoagulant effect in rat plasma, activated partial thromboplastin time (APTT) assay; type: biochemical; details: for prolongation of the APTT: rat plasma, broad concentration range of added inhibitor
Description: as §2, §3, §4

[4] = test system: activated partial thromboplastin time (APTT); test: Oral activity in dogs: clotting time of blood samples by APTT assay; type: in vivo, beagle dogs; details: after oral dosing
Description: The pharmacodynamic and pharmacokinetic parameters of the compound of Example 34 were evaluated after oral administration in dogs. Adult beagle dogs (9-12 kg) were housed individually in standard cages, and were fed a standard certified commercial diet and tap water ad libitum. Dogs were given an oral dose of 20 mg/kg test compound, in 55 ml deionized water, via a gastric tube, followed by a water rinse. In a separate protocol, 5 mg/kg of test compound, in 5 ml 0.9% sodium chloride, were administered by fast bolus i.v. injection through an indwelling saphenous vein catheter. The same dogs were used for both routes of administration, with a one week wash out period between use of the dogs for the different protocols.
After mixing with the anticoagulant, each blood sample was immediately chilled by immersion in a slurry of ice and water. The plasma was separated by centrifugation (4° C., 2400 rpm, 10 min) within 10 min of collection, and then transferred to a cryotube and stored at […] until analysis.
as §1

[5] = Table 3, read-out: IC50 (nM) thrombin
[6] = Table 2, 30-minute incubation with enzyme before substrate, read-out: IC50 alpha-thrombin
[7] = 0.3 mg/kg single intravenous bolus 5 minutes prior to FeCl3, n 6, monitored 60 minutes
[8] = 1.0 mg/kg single intravenous bolus 5 minutes prior to FeCl3, n 6, monitored 60 minutes
[9] = 3.0 mg/kg single intravenous bolus 5 minutes prior to FeCl3, n 6, monitored 60 minutes
[10] = 5.0 mg/kg single intravenous bolus 5 minutes prior to FeCl3, n 6, monitored 60 minutes

Sequence of human plasmin (P00747 97-580 limits assumed): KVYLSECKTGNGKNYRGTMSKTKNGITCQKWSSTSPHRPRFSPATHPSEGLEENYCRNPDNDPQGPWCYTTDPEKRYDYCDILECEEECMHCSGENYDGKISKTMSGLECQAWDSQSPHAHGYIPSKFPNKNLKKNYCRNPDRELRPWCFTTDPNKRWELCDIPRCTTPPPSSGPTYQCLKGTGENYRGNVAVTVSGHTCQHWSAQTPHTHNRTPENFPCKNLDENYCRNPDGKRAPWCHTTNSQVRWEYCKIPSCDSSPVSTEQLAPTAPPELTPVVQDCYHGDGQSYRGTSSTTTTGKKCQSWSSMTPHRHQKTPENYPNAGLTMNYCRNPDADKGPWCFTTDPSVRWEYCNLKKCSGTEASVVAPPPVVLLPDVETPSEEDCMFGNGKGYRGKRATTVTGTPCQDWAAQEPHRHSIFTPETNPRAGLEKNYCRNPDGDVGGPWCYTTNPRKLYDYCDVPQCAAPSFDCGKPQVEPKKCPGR
Sequence of human plasmin (P00747 581-810 limits assumed): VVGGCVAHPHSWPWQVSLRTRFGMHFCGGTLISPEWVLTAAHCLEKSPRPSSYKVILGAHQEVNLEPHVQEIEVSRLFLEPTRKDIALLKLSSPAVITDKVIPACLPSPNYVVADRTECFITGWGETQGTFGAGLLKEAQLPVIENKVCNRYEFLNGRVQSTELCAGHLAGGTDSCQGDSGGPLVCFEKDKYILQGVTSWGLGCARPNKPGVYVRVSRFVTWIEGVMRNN

SMILES	IC50 (human plasmin)	IC50 (human α-thrombin; [5])	IC50 (Human rt-PA (Activase®))	IC50 (human aPC)	IC50 [1]	also measured
Cc1ccccc1CS(=O)(=O)NC1CCCN(CC(=O)N[C@H](C=O)CCCNC(=N)N)C1=O (stereo partly drawn) [Example 36(q), N-(2-methylbenzyl-SO2-norLeu(cyclo)-Gly)-L-argininal]		1.71 nM				
NC(N)=NCCC[C@@H](C=O)NC(=O)CN1CCCCC(NS(=O)(=O)CC2CCCCC2)C1=O (stereo partly drawn) [Example 36(i), N-(cyclohexylmethyl-SO2 -norLeu(cyclo)-Gly)-L-argininal]	> 2500 nM				0.00786 µM	IC50 (human α-thrombin; [6]): 4.54 nM
N=C(N)NCCC[C@@H](C=O)NC(=O)CN1CCC[C@H](NCCc2ccccc2)C1=O [Example 72(a), N-[(S)-3-N-phenylethylamino-2-oxo-1-piperidineacetyl]-L-argininal]	> 2500 nM	3.09 nM	> 2500 nM	> 2500 nM		
NC(N)=NCCC[C@@H](C=O)NC(=O)CN1CCCCC(NS(=O)(=O)Nc2ccccc2)C1=O (stereo partly drawn) [Example 36(n), N-(phenylamino-SO2 -norLeu(cyclo)-Gly)-L-argininal]	> 2500 nM	14.2 nM				
Cc1cccc(CS(=O)(=O)NC2CCCCN(CC(=O)N[C@H](C=O)CCCN=C(N)N)C2=O)c1 (stereo partly drawn) [Example 36(r), N-(3-methylbenzyl-SO2-norLeu(cyclo)-Gly)-L-argininal]		0.93 nM				
N=C(N)NCCC[C@@H](C=O)NC(=O)CN1CCCC(NS(=O)(=O)Cc2cccc(C(F)(F)F)c2)C1=O (stereo partly drawn) [Example 36(p), N-(3-trifluoromethylbenzyl-SO2-norLeu(cyclo)-Gly)-L-argininal]	> 2500 nM	1.9 nM	> 2500 nM	> 2500 nM		

Second part, led by results:

IC50 (human plasmin)	IC50 (human α-thrombin; [5])	IC50 (Human rt-PA (Activase®))	IC50 (human aPC)	IC50 [1]	SMILES	also measured
> 2500 nM	5.41 nM	> 2500 nM	> 2500 nM		NC(N)=NCCC[C@@H](C=O)NC(=O)CN1CCCC(N)(Cc2ccccc2)C1=O (stereo partly drawn) [Example 55, N-[D, L-3-Amino-3-benzyl-2-oxo-1-piperidineacetyl]-L-argininal]	
	0.71 nM			0.072 µM	NC(N)=NCCC[C@@H](C=O)NC(=O)CN1CCCCC(NS(=O)(=O)Cc2ccccc2)C1=O (stereo partly drawn) [Example 34, N-(BnSO2 -norLeu(cyclo)-Gly)-L-argininal]	IC50 (human α-thrombin; [6]): 0.93 nM; time at which blood level of compound reached maximum levels ([2]; after administration): 30 to 40 min; systemic bioavailability (ratio of AUC oral to AUC i.v.) ([2]; oral 20 mg/kg vs i.v. 5 mg/kg, corrected for difference in dose): approximately 66%; Ki (human alpha-thrombin): 0.000538 ± 8e-05 µM; concentration which caused a doubling of the control clotting time (APTT) (citrated human plasma): 4.5 µM; prolongation of the APTT (citrated human plasma): prolonged the APTT in a dose-dependent manner; ED50 for thrombus prevention (dose that prevents complete thrombotic occlusion in 50% of animals tested) [3]: 2.1 mg/kg; Incidence of Occlusion [3, 7]: 6/6; Incidence of Occlusion [3, 8]: 6/6; Incidence of Occlusion [3, 9]: 2/6; Incidence of Occlusion [3, 10]: 2/6; prolongation of the APTT (citrated rat plasma): prolonged the APTT in a dose-dependent manner; time to significant elevation of APTT [4]: 20 to 30 min
		> 2500 nM	> 2500 nM	1.55 µM	NC(N)=NCCC[C@@H](C=O)NC(=O)CN1CCCC(NS(=O)(=O)Cc2ccccc2)C1=O (stereo partly drawn) [Example 8, N-benzylsulfonyl-norVal(cyclo)-Gly-L-argininal]	concentration which caused a doubling of the control clotting time (APTT) (citrated human plasma): 12.8 µM; prolongation of the APTT (citrated human plasma): prolonged the APTT in a dose-dependent manner; ED50 for thrombus prevention (dose that prevents complete thrombotic occlusion in 50% of animals tested) [3]: 0.75 mg/kg; Incidence of Occlusion [3, 7]: 6/6; Incidence of Occlusion [3, 8]: 2/6; Incidence of Occlusion [3, 9]: 1/6; Incidence of Occlusion [3, 10]: 0/6; concentration which caused a doubling of the control clotting time (APTT) (citrated rat plasma; citrated rat plasma, control clotting time 20 sec, mean of two independent determinations): 22.1 µM; prolongation of the APTT (citrated rat plasma): prolonged the APTT in a dose-dependent manner
> 2500 nM	5.41 nM	> 2500 nM	> 2500 nM		NC(N)=NCCC[C@@H](C=O)NC(=O)CN1CCCCC(N)(Cc2ccccc2)C1=O (stereo partly drawn) [Example 64, N-[D,.L-3-Amino-3-benzyl-hexahydro-2-oxo-azepine-1-acetyl]-L-argininal]	
